Earlier results, collected in US11395811B2, “Compositions comprising a fatty acid oil mixture comprising EPA and DHA in free acid form and a surfactant, and methods and uses thereof” (ProNova BioPharma Norge AS, priority 2009, dated 2022).

Conditions: Brij surfactants, Table 2

Going from “Polyoxyethylene (2) oleyl ether [Brij ® 92V]” to “Polyoxyethylene (2) oleyl ether [Brij ® 93]”, the “HLB Value” falls from 4.9 to 4.

First: Polyoxyethylene(4) lauryl ether [Brij ® 30]
Second: Polyoxyethylene (2) cetyl ether [Brij ® 52]
The “HLB Value” of the first is higher: 9.7 for the first, 5.3 for the second.

First: polyoxyethylene (2) stearyl ether [Brij ® 72]
Second: polyoxyethylene (100) stearyl ether [Brij ® 700]
The “HLB Value” of the first is lower: 4.9 for the first, 18 for the second.

In the case of “polyethylene glycol oleyl ether [Brij ® 96V]”, the “HLB Value” is listed as 12.4.

Same assay, conditions: Myrj surfactants, Table 5

First: polyoxyethylene monostearate [Myrj ® 45]
Second: polyoxyethylene monostearate [Myrj ® 49]
The “HLB Value” of the first is lower: 11.1 for the first, 15.0 for the second.

Going from “polyoxyethylene monostearate [Myrj ® 52]” to “polyoxyethylene monostearate [Myrj ® 53]”, the “HLB Value” rises from 16.9 to 17.9.

Same assay, conditions: Tween surfactants, Table 4

In the case of “polyoxyethylene (20) sorbitan monolaurate [Tween ® 20]”, the “HLB Value” is given as 16.0.
